Reference: PMC10535864, “Novel Aminopyrimidine-2,4-diones, 2-Thiopyrimidine-4-ones, and 6-Arylpteridines as Dual-Target Inhibitors of BRD4/PLK1: Design, Synthesis, Cytotoxicity, and Computational Studies” (Pharmaceuticals, 2023)

Columns and labels:
[1] = tested on: MDA-MB-231 breast cancer cells; experiment: MTT cytotoxicity assay, MDA-MB-231; type: cell-based; details: MDA-MB-231, MTT; for IC50 / viability at 0.312 µM / viability at 0.625 µM / viability at 1.25 µM / viability at 2.5 µM / viability at 5 µM / viability at 10 µM: Homo sapiens; for IC50: mean of three independent experiments ± SD, read-out: IC50 Value MDA-MB-231
In short: (§1)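 Cells seeded at 1 X 10^5 cells/mL and grown 24 h at 37°C to a monolayer, then exposed to two-fold compound dilutions in RPMI with 2% serum, six doses. MTT added for 4 h at 37°C, formazan dissolved in DMSO, OD read at 560 nm minus 620 nm background. IC50 from dose-response.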

[2] = tested on: HT-29 colorectal adenocarcinoma cells; experiment: MTT cytotoxicity assay, HT-29; type: cell-based; details: MTT; for Toxicity % / viability at 0.312 µM / viability at 0.625 µM / viability at 1.25 µM / viability at 2.5 µM / viability at 5 µM / viability at 10 µM: HT29; for viability at 0.312 µM / viability at 0.625 µM / viability at 1.25 µM / viability at 2.5 µM / viability at 5 µM / viability at 10 µM / IC50: Homo sapiens, HT-29; for IC50: mean of three independent experiments ± SD, read-out: IC50 Value HT-29
In short: as §1

[3] = MTT cytotoxicity assay, U-937; type: cell-based; details: Homo sapiens, U-937, U937, MTT;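 also: Six-dose MTT colorimetric assay on cell monolayers, formazan absorbance read at 560 nm with 620 nm background removed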
Description: (§2) All newly synthetic compounds were tested for cytotoxicity using a six-dose MTT colorimetric assay on three cancer cell lines; namely, breast cancer cells (MDA-MB-231), colorectal adenocarcinoma cells (HT-29) and renal cancer cells (U-937).
(§3) Using a six-dose MTT colorimetric assay [44, 66], all new synthetic compounds were tested for cytotoxicity against three cancer cell lines: MDA-MB-231 breast cancer cells, HT-29 colorectal adenocarcinoma cells, and U-937 renal cancer cells. […] These cell lines were supplied by ATCC (American Type Culture Collection) via the Holding company for biological products and vaccines (VACSERA, Cairo, Egypt). The reference control used was Methotrexate.
(§4) Using a six-dose MTT colorimetric assay [44, 66], allnew synthetic compounds were tested for cytotoxicity against three cancer cell lines: MDA-MB-231 breast cancer cells,HT-29 colorectal adenocarcinoma cells, and U-937 renal
(§5) The cell lines were supplied by ATCC (American Type Culture Collection). The reference control used was Methotrexate. The cytotoxic activities of the examined compounds were quantified by inoculating a 96-well tissue culture plate with 1 X 10^5 cells / mL (100 uL/well) and incubating it at 37°C for 24 hours to develop a complete monolayer sheet. After forming a confluent sheet of cells, the growth medium was decanted from 96-well microtiter plates, and the cell monolayer was washed twice with wash media. Two-fold dilutions of tested samples were made in RPMI medium with 2% serum (maintenance medium), and 0.1 mL of each dilution was tested in different wells, with three wells serving as controls and receiving only maintenance medium. Following that, the plate was incubated at 37°C and examined. Cells were investigated for any physical signs of toxicity, such as partial or complete monolayer loss, rounding, shrinkage, or cell granulation. MTT solution was prepared (5mg/ml in PBS) (BIO BASIC CANADA INC), and 20 uL MTT solution was added to each well. After 5 minutes on a shaking table at150 rpm to thoroughly mix the MTT into the media, it was incubated (37C, 5% CO2) for 4 hours to allow the MTT to be metabolized. Formazan (MTT metabolic product) was resuspended in 200 uL DMSO and shaken at 150 rpm for 5 minutes to thoroughly mix the formazan into the solvent. The optical density was measured at 560 nm, and the background was subtracted at 620 nm. Finally, the IC50 of the test compound in comparison to the reference was calculated using the GraphPad Prism software.

U-937 renal cancer cells = experiment: MTT cytotoxicity assay, U-937; type: cell-based; details: MTT; for IC50: Homo sapiens, U-937, mean of three independent experiments ± SD, read-out: IC50 Value U-937; for Toxicity %: U937;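 as to all read-outs here: Six-dose MTT colorimetric assay on cell monolayers, formazan absorbance read at 560 nm with 620 nm background removed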
Description: as §2, §3, §4, §5

[4] = MTT cytotoxicity assay, normal Vero cells; type: cell-based; details: African green monkey, normal Vero cells, MTT; for IC50: mean of three independent experiments ± SD, read-out: In Vitro Cytotoxicity against Normal Cells IC50 Value, Vero Cells; for viability at 0.312 µM / viability at 0.625 µM / viability at 1.25 µM / viability at 2.5 µM / viability at 5 µM / viability at 10 µM: Vero
Description: as §3
1.1.In-vitro cytotoxicity screening
as §4, §5

normal Vero cells = experiment: MTT cytotoxicity assay, normal Vero cells; type: cell-based; details: Vero, MTT
Description: as §3
1.1.In-vitro cytotoxicity screening
as §4, §5

BRD4 (BD2) = molecular target: T1, BRD4 (BD2) (Homo sapiens, UniProt O60885); experiment: BRD4 inhibitory activity assay (AlphaLISA Bromodomain Assay); type: binding; details: for %inh: BRD4 Lab Report; for IC50: mean of three independent experiments, read-out: BRD4 IC50 ± SD;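 as to all read-outs here: in vitro inhibition of recombinant BRD4 BD2 bromodomain binding to a BET bromodomain ligand, read by AlphaLISA proximity signal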
T1 construct: BRD4 (BD2) should be thawed on ice; purchased
Description: The BRD4 and PLK1 inhibitory assays were carried out in vitro in accordance with the manufacturer’s instructions; BRD4 was assessed using AlphaLISA Bromodomain Assay Protocol [67], and PLK1 kinase was tested using the ADP-Glo™ Kinase Assay Protocol [68], as detailed in the Supplementary file.
The BRD4 and PLK1 inhibitory assays were carried out in vitro in accordance with the manufacturer's instructions; BRD4 was assessed using AlphaLISA Bromodomain Assay Protocol [67], and PLK1 kinase was tested using the ADP-Glo™ Kinase Assay Protocol [68],
The master mixture was prepared as follows: N wells × (2.5 µL 3x BRD Homogeneous Assay Buffer 1 + 1 µL BET Bromodomain Ligand + 1.5 µL H2O). BRD4 (BD2) should be thawed on ice. Simply, the protein-containing tube was spined to recover the full content of the tube after the firstthaw. Both proteins should be aliquoted into single-use aliquots. Immediately, any remaining undiluted protein should be stored in aliquots at -80°C. BRD4 (BD2) was diluted in 1x BRD Homogeneous Assay Buffer 1 at 4 ng/µL. The diluted proteins were kept on ice until they were used. 5 µl of the master mixture is added to each well designated for the “Positive Control”, “Test Inhibitor”, and “Blank”. For the “Substrate Control”, 2.5 µL 3x BRD Homogeneous Assay Buffer 1 + 1 µL Non-acetylated Ligand 1 + 1.5 µL H2O is added. Each “Test Inhibitor” well received 2.5 µL of inhibitor solution, while the “Positive
Control”, “Substrate Control”, and “Blank” wells received 2.5 µL of the same solution without inhibitor (inhibitor buffer). Then, the “Blank” well is filled with 2.5 µL of 1x BRD Homogeneous Assay Buffer 1. After that, GSH
10 µL per well is added, the plate isshaken, and itis incubated at room temperature for 30 minutes. Streptavidin-
10 µL is added per well and incubated at room temperature for further 15 – 30 minutes [67]. The Alpha counts were read using the EnVision® multimode plate reader with the standard Alpha detection settings.

human recombinant PLK1 = human recombinant PLK1 (Homo sapiens, UniProt P53350); experiment: PLK1 inhibitory activity assay (ADP-Glo Kinase Assay); type: biochemical; details: for %inh: PLK1 Lab Report; for IC50: mean of three independent experiments, read-out: PLK1 IC50 ± SD
Chain of human recombinant PLK1 (P53350 whole entry): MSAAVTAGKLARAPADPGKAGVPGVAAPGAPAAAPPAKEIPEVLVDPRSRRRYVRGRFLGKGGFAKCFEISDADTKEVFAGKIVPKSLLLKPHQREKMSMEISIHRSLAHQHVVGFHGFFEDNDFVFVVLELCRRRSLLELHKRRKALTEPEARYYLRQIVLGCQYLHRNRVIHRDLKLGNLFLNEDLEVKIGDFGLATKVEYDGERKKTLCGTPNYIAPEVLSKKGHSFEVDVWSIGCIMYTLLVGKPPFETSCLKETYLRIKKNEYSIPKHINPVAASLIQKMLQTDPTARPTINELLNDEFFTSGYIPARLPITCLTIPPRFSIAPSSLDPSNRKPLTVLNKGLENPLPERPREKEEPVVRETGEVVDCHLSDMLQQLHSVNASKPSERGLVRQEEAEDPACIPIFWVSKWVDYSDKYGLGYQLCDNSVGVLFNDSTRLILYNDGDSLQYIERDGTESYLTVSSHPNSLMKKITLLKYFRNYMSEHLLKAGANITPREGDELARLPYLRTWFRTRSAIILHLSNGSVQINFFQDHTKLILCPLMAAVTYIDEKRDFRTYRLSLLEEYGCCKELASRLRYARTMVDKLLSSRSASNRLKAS
Description: The BRD4 and PLK1 inhibitory assays were carried out in vitro in accordance with the manufacturer’s instructions; BRD4 was assessed using AlphaLISA Bromodomain Assay Protocol, and PLK1 kinase was tested using the ADP-Glo™ Kinase Assay Protocol, as detailed in the Supplementary file. […]
1.2.2. PLK1 inhibitory activity assay
The kinase reaction was performed with active human recombinant PLK1 and combined with the substrate dephosphorylated casein (positive control) using 1 X reaction buffer (40 mM Tris-HCl pH 7.4, 20 mM MgCl2, 0.1 mg/mL BSA, 1 mM DTT) and 20 μM ATP. The reaction was incubated at30°C for 45 minutes. The amount of ATP transferred was calculated using […] reagent from Promega according to the manufacturer’s instruction.
A plate-reading luminometer isused to measure the luminescence. […]

Compound `Cn1c(SCC(=O)c2ccccc2)nc(=O)c(/N=C(/CBr)c2ccccc2)c1N` [Compound 7, (E)-6-Amino-5-((2-bromo-1-phenylethylidene)amino)-1-methyl-2-((2-oxo-2-phenylethyl)thio)pyrimidin-4(1H)-one] has an IC50 [1] of 400 ± 10 nM, a viability at 0.312 µM ([1]; 0.312 uM) of 57% and a viability at 0.625 µM ([1]; 0.625 uM) of 28.9%. It also gave a viability at 1.25 µM ([1]; 1.25 uM) of 16.5%, a viability at 2.5 µM ([1]; 2.5 uM) of 11.7% and a viability at 5 µM ([1]; 5 uM) of 11%. The viability at 10 µM ([1]; 10 uM) was 4.92%, the Toxicity % ([1]; 0.312 uM) was 42.95% and the Toxicity % ([1]; 0.625 uM) was 71.14%. It also gave a Toxicity % ([1]; 1.25 uM) of 83.51%, a Toxicity % ([1]; 2.5 uM) of 88.25% and a Toxicity % ([1]; 5 uM) of 88.96%. The Toxicity % ([1]; 10 uM) was 95.08%, the Toxicity % ([2]; 0.312 uM) was 0.04307% and the Toxicity % ([2]; 0.625 uM) was 45.56%. For the same compound, the Toxicity % ([2]; 1.25 uM) was 86.39%, the Toxicity % ([2]; 2.5 uM) was 88.67% and the Toxicity % ([2]; 5 uM) was 93.28%. For the same compound, the Toxicity % ([2]; 10 uM) was 93.71%, the viability at 0.312 µM ([2]; 0.312 uM) was 100% and the viability at 0.625 µM ([2]; 0.625 uM) was 54.4%. For the same compound, the viability at 1.25 µM ([2]; 1.25 uM) was 13.6%, the viability at 2.5 µM ([2]; 2.5 uM) was 11.3% and the viability at 5 µM ([2]; 5 uM) was 6.72%. For the same compound, the viability at 10 µM ([2]; 10 uM) was 6.29%, the IC50 [2] was 790 ± 10 nM and the viability at 0.312 µM [3] was 94%. For the same compound, the viability at 0.625 µM [3] was 88.3%, the viability at 1.25 µM [3] was 55.4% and the viability at 2.5 µM [3] was 39.7%. It also gave a viability at 5 µM [3] of 29.6%, a viability at 10 µM [3] of 11.4% and an IC50 (U-937 renal cancer cells) of 1850 ± 40 nM. For the same compound, the Toxicity % (U-937 renal cancer cells; 0.312 uM) was 5.991%, the Toxicity % (U-937 renal cancer cells; 0.625 uM) was 11.66% and the Toxicity % (U-937 renal cancer cells; 1.25 uM) was 44.55%. It also gave a Toxicity % (U-937 renal cancer cells; 2.5 uM) of 60.35%, a Toxicity % (U-937 renal cancer cells; 5 uM) of 70.37% and a Toxicity % (U-937 renal cancer cells; 10 uM) of 88.56%. The IC50 [4] was 3920 ± 80 nM, the viability at 0.312 µM [4] was 99.6% and the viability at 0.625 µM [4] was 99.8%. For the same compound, the viability at 1.25 µM [4] was 97.6%, the viability at 2.5 µM [4] was 73.5% and the viability at 5 µM [4] was 31.6%. The viability at 10 µM [4] was 10.5%, the Toxicity % (normal Vero cells; 0.312 uM) was 0.3992% and the Toxicity % (normal Vero cells; 0.625 uM) was 0.1996%. The Toxicity % (normal Vero cells; 1.25 uM) was 2.395%, the Toxicity % (normal Vero cells; 2.5 uM) was 26.55% and the Toxicity % (normal Vero cells; 5 uM) was 68.38%. The Toxicity % (normal Vero cells; 10 uM) was 89.46%, the “%inh” value (BRD4 (BD2); conc 0.01 (unit not given)) was 38% and the “%inh” value (BRD4 (BD2); conc 0.1 (unit not given)) was 56%. For the same compound, the “%inh” value (BRD4 (BD2); conc 1 (unit not given)) was 74%, the “%inh” value (BRD4 (BD2); conc 10 (unit not given)) was 89% and the “%inh” value (BRD4 (BD2); conc 100 (unit not given)) was 95%. For the same compound, the IC50 (BRD4 (BD2)) was 42 ± 2 nM, the “%inh” value (human recombinant PLK1; conc 0.01 (unit not given)) was 43% and the “%inh” value (human recombinant PLK1; conc 0.1 (unit not given)) was 60%. The “%inh” value (human recombinant PLK1; conc 1 (unit not given)) was 76%, the “%inh” value (human recombinant PLK1; conc 10 (unit not given)) was 90% and the “%inh” value (human recombinant PLK1; conc 100 (unit not given)) was 95%. For the same compound, the IC50 (human recombinant PLK1) was 20 ± 1 nM.
Work on `Nc1c(/N=C(/CBr)c2ccccc2)c(=O)[nH]c(=O)n1Cc1ccccc1` [Compound 4, (E)-6-Amino-1-benzyl-5-((2-bromo-1-phenylethylidene)amino)pyrimidine-2,4(1H,3H)-dione] yielded an IC50 [1] of 780 ± 10 nM, a viability at 0.312 µM ([1]; 0.312 uM) of 99.7% and a viability at 0.625 µM ([1]; 0.625 uM) of 57.8%. The viability at 1.25 µM ([1]; 1.25 uM) was 7.14%, the viability at 2.5 µM ([1]; 2.5 uM) was 8.02% and the viability at 5 µM ([1]; 5 uM) was 5.1%. It also gave a viability at 10 µM ([1]; 10 uM) of 4.7%, a Toxicity % ([1]; 0.312 uM) of 0.3103% and a Toxicity % ([1]; 0.625 uM) of 42.24%. It also gave a Toxicity % ([1]; 1.25 uM) of 92.86%, a Toxicity % ([1]; 2.5 uM) of 91.98% and a Toxicity % ([1]; 5 uM) of 94.9%. The Toxicity % ([1]; 10 uM) was 95.3%, the Toxicity % ([2]; 0.312 uM) was 0.1292% and the Toxicity % ([2]; 0.625 uM) was 48.06%. The Toxicity % ([2]; 1.25 uM) was 92.12%, the Toxicity % ([2]; 2.5 uM) was 92.46% and the Toxicity % ([2]; 5 uM) was 92.76%. For the same compound, the Toxicity % ([2]; 10 uM) was 93.84%, the viability at 0.312 µM ([2]; 0.312 uM) was 99.9% and the viability at 0.625 µM ([2]; 0.625 uM) was 51.9%. The viability at 1.25 µM ([2]; 1.25 uM) was 7.88%, the viability at 2.5 µM ([2]; 2.5 uM) was 7.54% and the viability at 5 µM ([2]; 5 uM) was 7.24%. It also gave a viability at 10 µM ([2]; 10 uM) of 6.16%, an IC50 [2] of 760 nM and a viability at 0.312 µM [3] of 97.3%. It also gave a viability at 0.625 µM [3] of 83%, a viability at 1.25 µM [3] of 24.8% and a viability at 2.5 µM [3] of 8.01%. For the same compound, the viability at 5 µM [3] was 7.46%, the viability at 10 µM [3] was 7.9% and the IC50 (U-937 renal cancer cells) was 950 nM. The Toxicity % (U-937 renal cancer cells; 0.312 uM) was 2.669%, the Toxicity % (U-937 renal cancer cells; 0.625 uM) was 16.99% and the Toxicity % (U-937 renal cancer cells; 1.25 uM) was 75.22%. The Toxicity % (U-937 renal cancer cells; 2.5 uM) was 91.99%, the Toxicity % (U-937 renal cancer cells; 5 uM) was 92.54% and the Toxicity % (U-937 renal cancer cells; 10 uM) was 92.1%. It also gave an IC50 [4] of 1730 ± 30 nM, a viability at 0.312 µM [4] of 100% and a viability at 0.625 µM [4] of 92.9%. The viability at 1.25 µM [4] was 63.6%, the viability at 2.5 µM [4] was 23.6% and the viability at 5 µM [4] was 6.63%. For the same compound, the viability at 10 µM [4] was 2.28%, the Toxicity % (normal Vero cells; 0.312 uM) was 0% and the Toxicity % (normal Vero cells; 0.625 uM) was 7.106%. It also gave a Toxicity % (normal Vero cells; 1.25 uM) of 36.41%, a Toxicity % (normal Vero cells; 2.5 uM) of 76.37% and a Toxicity % (normal Vero cells; 5 uM) of 93.37%. For the same compound, the Toxicity % (normal Vero cells; 10 uM) was 97.72%, the “%inh” value (BRD4 (BD2); conc 0.01 (unit not given)) was 41% and the “%inh” value (BRD4 (BD2); conc 0.1 (unit not given)) was 58%. For the same compound, the “%inh” value (BRD4 (BD2); conc 1 (unit not given)) was 75%, the “%inh” value (BRD4 (BD2); conc 10 (unit not given)) was 91% and the “%inh” value (BRD4 (BD2); conc 100 (unit not given)) was 95%. For the same compound, the IC50 (BRD4 (BD2)) was 29 ± 1 nM, the “%inh” value (human recombinant PLK1; conc 0.01 (unit not given)) was 34% and the “%inh” value (human recombinant PLK1; conc 0.1 (unit not given)) was 46%. The “%inh” value (human recombinant PLK1; conc 1 (unit not given)) was 70%, the “%inh” value (human recombinant PLK1; conc 10 (unit not given)) was 88% and the “%inh” value (human recombinant PLK1; conc 100 (unit not given)) was 95%. The IC50 (human recombinant PLK1) was 94 ± 4 nM.
